Experimental data published in patent publication US20210059282A1, “Process for Spray Drying Fucosyllactose Solutions and Related Product Compositions” (DUPONT NUTRITION BIOSCIENCES APS, priority 2018, published 2021).

Test: Solubility in water at room temperature and pressure (general statement)
Format: physicochemical

SMILES: CC1OC(OC2C(OC3C(CO)OC(O)C(O)C3O)OC(CO)C(O)C2O)C(O)C(O)C1O (stereo not shown) [2′-FL, 2′-fucosyllactose]
- Solubility in water: soluble in water
